This experiment concerns drug-resistant Mycobacterium tuberculosis. Conditions: 10 micrograms per ml; seven days at 37° C.; strain resistant to PAS, streptomycin and isoniazid.

Ends that are not written are not given here.

For `CC(C)C[C@H](NC(=O)CNC(=O)[C@H](Cc1ccc(O)cc1)NC(=O)[C@H](CO)NC(=O)[C@H](Cc1c[nH]c2ccccc12)NC(=O)[C@H](Cc1cnc[nH]1)NC(=O)[C@@H]1CCC(=O)N1)C(=O)N[C@@H](CCCNC(=N)N)C(=O)N1CCC[C@H]1C(=O)NCC(N)=O` [Peptide 1], the “inhibition of the growth of Mycobacterium tuberculosis” value is reported as 100%.

Take “Met-Gln-Met-Lys-Lys-Val-Leu-Asp-Ser-OH (MQMKKVLDS-OH) [Peptide 2]”: the “inhibition of the growth of Mycobacterium tuberculosis” value turned out to be 100%.

Values taken from patent US8349805B2, “Use of Gonadorelin as a therapeutic agent” (priority 2007, dated 2013).
